Experimental findings from patent publication US10870647B2, “Imidazopyridine derivative, method for preparing same, and pharmaceutical composition containing same as active ingredient for preventing or treating cancer” (DAEGU-GYEONGBUK MEDICAL INNOVATION FOUNDATION, priority 2016, dated 2020) are described below.

What all share (assay): Kinase selectivity, scanMAX Kinase assay panel (DiscoverX), % control at 1 uM
What all share (format): binding

For assay [1], the target named is T1, scanMAX Kinase assay panel (Homo sapiens, UniProt O43283).
T1 construct: purchased DiscoverX
T1 sequence (O43283 1-966): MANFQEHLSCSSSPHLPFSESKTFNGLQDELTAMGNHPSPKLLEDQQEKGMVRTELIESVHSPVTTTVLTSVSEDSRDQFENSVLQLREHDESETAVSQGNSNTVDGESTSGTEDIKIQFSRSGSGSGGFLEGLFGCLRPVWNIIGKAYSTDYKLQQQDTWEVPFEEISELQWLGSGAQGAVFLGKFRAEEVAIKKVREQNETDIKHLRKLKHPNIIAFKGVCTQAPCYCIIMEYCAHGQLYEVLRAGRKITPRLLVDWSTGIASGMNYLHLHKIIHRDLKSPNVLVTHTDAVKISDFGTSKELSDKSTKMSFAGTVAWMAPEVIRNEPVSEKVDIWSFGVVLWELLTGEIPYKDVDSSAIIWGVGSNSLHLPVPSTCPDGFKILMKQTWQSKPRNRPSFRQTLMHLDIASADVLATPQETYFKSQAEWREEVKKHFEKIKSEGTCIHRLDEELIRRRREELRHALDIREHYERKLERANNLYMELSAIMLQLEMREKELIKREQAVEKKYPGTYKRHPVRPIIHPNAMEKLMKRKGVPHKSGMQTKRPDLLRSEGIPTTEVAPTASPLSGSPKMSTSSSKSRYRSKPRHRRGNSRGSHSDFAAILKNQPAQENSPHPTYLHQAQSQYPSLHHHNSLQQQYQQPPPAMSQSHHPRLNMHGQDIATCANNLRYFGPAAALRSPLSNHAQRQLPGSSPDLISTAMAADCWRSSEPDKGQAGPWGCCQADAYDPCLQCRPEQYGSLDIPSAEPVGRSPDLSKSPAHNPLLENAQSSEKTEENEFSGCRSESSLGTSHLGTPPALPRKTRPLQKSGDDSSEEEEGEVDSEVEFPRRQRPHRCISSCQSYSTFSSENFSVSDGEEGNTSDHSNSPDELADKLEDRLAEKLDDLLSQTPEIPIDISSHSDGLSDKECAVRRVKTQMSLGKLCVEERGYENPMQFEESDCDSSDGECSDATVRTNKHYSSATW
Particulars: LZK; 1 uM; read-out: Percent Control (%). In outline:
(§1)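 1 uM cpd (DMSO) per kinase; % ctrl = [cpd − pos ctrl]/[neg ctrl − pos ctrl] × 100; hit if <35.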

Assay [2] has as its target T2, scanMAX Kinase assay panel (Homo sapiens, UniProt P42681).
T2 construct: purchased DiscoverX
T2 sequence (P42681 1-527): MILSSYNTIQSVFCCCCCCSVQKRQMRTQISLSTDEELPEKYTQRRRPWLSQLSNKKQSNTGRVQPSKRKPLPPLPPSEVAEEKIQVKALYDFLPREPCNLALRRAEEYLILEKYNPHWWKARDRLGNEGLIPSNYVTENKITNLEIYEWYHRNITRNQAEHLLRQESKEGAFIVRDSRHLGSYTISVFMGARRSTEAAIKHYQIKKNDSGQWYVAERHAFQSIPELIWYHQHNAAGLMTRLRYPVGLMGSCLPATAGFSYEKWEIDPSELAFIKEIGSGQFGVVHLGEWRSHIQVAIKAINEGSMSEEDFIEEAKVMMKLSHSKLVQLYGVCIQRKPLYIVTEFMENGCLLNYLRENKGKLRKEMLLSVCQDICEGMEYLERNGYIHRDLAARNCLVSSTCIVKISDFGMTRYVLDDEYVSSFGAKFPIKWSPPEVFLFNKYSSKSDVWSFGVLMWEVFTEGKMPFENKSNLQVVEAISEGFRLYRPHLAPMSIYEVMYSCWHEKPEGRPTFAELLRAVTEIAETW
Particulars: TXK; 1 uM; read-out: Percent Control (%). The method in brief: as §1

The target in assay [3] is T3, scanMAX Kinase assay panel (Homo sapiens, UniProt P09769).
T3 construct: purchased DiscoverX
T3 sequence (P09769 whole entry): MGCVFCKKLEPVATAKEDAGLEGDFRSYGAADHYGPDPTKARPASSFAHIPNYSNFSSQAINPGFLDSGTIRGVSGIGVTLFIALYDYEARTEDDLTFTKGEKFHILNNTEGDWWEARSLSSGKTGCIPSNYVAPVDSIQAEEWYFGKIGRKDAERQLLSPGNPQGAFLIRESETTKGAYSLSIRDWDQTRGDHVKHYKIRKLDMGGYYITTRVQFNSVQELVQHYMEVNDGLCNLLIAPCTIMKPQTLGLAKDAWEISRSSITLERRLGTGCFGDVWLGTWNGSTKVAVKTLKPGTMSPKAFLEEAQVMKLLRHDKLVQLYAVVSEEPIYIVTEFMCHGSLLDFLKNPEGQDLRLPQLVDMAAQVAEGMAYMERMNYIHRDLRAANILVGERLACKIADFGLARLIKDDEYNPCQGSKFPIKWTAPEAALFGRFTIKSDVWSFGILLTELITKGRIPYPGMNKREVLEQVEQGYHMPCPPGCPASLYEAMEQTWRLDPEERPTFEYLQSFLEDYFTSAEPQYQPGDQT
Particulars: FGR; 1 uM; read-out: Percent Control (%). The method in brief:
as §1

Assay [4] addresses T4, scanMAX Kinase assay panel (Homo sapiens, UniProt P48730).
T4 construct: purchased DiscoverX
Particulars: CSNK1D; 1 uM; read-out: Percent Control (%). The method in brief: as §1

Assay [5] deals with T5, scanMAX Kinase assay panel (Homo sapiens, UniProt Q07002).
T5 construct: purchased DiscoverX
T5 sequence (Q07002 whole entry): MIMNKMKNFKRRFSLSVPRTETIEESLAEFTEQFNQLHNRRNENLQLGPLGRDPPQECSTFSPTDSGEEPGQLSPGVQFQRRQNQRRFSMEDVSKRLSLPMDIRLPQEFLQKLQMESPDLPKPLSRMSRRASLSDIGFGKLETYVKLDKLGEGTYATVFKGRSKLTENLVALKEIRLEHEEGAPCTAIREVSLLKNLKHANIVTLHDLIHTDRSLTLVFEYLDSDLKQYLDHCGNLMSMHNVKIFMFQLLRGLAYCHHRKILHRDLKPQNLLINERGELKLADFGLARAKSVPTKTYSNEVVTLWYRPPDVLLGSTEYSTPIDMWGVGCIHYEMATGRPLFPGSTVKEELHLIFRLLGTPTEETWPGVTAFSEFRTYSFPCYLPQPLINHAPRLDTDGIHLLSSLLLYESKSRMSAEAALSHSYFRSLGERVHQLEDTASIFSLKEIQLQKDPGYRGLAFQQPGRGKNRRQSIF
Particulars: PCTK3; 1 uM; read-out: Percent Control (%). In outline: as §1

T4 sequence (P48730 whole entry): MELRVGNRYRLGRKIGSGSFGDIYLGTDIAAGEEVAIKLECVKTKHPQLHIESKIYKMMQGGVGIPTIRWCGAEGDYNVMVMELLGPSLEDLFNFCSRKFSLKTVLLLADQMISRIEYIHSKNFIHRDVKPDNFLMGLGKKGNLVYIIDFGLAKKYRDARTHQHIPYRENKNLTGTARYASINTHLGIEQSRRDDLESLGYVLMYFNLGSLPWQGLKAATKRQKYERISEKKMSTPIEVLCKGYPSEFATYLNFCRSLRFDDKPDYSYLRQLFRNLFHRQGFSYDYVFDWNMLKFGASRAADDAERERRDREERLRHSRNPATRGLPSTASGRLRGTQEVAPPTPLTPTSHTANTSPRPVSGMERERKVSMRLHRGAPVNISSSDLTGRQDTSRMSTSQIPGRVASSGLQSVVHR

As to `Cc1ccc(C(=O)Nc2ccc(CN3CCN(C)CC3)c(C(F)(F)F)c2)cc1C#Cc1cnc2c(Nc3cnn(C)c3)cccn12` [Example 1, 4-methyl-3-((8-((1-methyl-1H-pyrazol-4-yl)amino)imidazo[1,2-a]pyridin-3-yl)ethynyl)-N-(4-((4-methylpiperazin-1-yl)methyl)-3-(trifluoromethyl)phenyl)benzamide], the remaining binding at 1 µM was 71% in assay [1]; 1% in assay [2]; 0% in assay [3]; 91% in assay [4]; 60% in assay [5].

For `Cc1ccc(NC(=O)C2(C(=O)Nc3ccc(F)cc3)CC2)cc1C#Cc1cnc2c(Nc3cnn(C(C)C)c3)cccn12` [Example 78], the remaining binding at 1 µM is 94% in assay [1]; 91% in assay [2]; 80% in assay [3]; 92% in assay [4]; 100% in assay [5].

Turning to `Cc1cn(-c2cc(NC(=O)c3ccc(C)c(C#Cc4cnc5c(Nc6cnn(C)c6)cccn45)c3)cc(C(F)(F)F)c2)cn1` [Example 12, 4-methyl-N-(3-(4-methyl-1H-imidazol-1-yl)-5-(trifluoromethyl)phenyl)-3-((8-((1-methyl-1H-pyrazol-4-yl)amino)imidazo[1,2-a]pyridin-3-yl)ethynyl)benzamide], the remaining binding at 1 µM stood at 100% in assay [1]; 3% in assay [2]; 4% in assay [3]; 79% in assay [4]; 84% in assay [5].
